Values of other authors in US20130158028A1, “USE OF STIMULATORS AND ACTIVATORS OF SOLUBLE GUANYLATE CYCLASE FOR TREATING SICKLE-CELL ANEMIA AND CONSERVING BLOOD SUBSTITUTES” (BAYER INTELLECTUAL PROPERTY GMBH, priority 2010, published 2013).

Details: repeated reports

## CN1CC(=O)N2[C@H](c3ccc4c(c3)OCO4)c3[nH]c4ccccc4c3C[C@@H]2C1=O [tadalafil, (6R,12aR)-2,3,6,7,12,12a-hexahydro-2-methyl-6-(3,4-methylenedioxyphenyl)pyrazino (1′,2′:1,6) pyrido(3,4-b)indole-1,4-dione]
  incidence of back pain: increased incidence of back pain
